Data taken from PubChem BioAssay (NCI).
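Tested at 5 concentrations; 48 h exposure; 96-well plates; endpoints linearly interpolated, else capped at highest concentration. GI50 = concentration required for 50% inhibition of growth. TGI: concentration producing complete growth inhibition.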

Experiments:
Experiment in all cases: growth of human tumour cells (NCI), 48 h; in the data active = GI50 below about 0.43 µM; inactive = the rest
[1] = system: UO-31 renal
[2] = system: ACHN renal
[3] = system: SK-MEL-28 melanoma
[4] = system: LOX IMVI melanoma
[5] = system: SK-MEL-5 melanoma
[6] = system: OVCAR-4 ovarian
[7] = system: OVCAR-8 ovarian
[8] = system: NCI-H522 lung
[9] = system: HT29 colon
[10] = system: UACC-257 melanoma
[11] = system: MCF7 breast
[12] = system: MOLT-4 leukemia
[13] = system: KM12 colon
[14] = system: TK-10 renal
[15] = system: HCT-15 colon
[16] = system: HL-60(TB) leukemia
[17] = system: EKVX NSCLC
[18] = system: OVCAR-5 ovarian
[19] = system: SW-620 colon
[20] = system: MDA-MB-435
[21] = system: SF-539 CNS
[22] = system: CAKI-1 renal
[23] = system: SR leukemia
[24] = system: CCRF-CEM leukemia
[25] = system: NCI-H226 lung
[26] = system: HOP-62 NSCLC
[27] = system: SNB-19 CNS
[28] = system: SN12C renal
[29] = system: NCI-H460 lung
[30] = system: SF-268 CNS
[31] = system: SNB-75 CNS
[32] = system: MDA-MB-231 breast
[33] = system: SF-295 CNS
[34] = system: SK-MEL-2 melanoma
[35] = system: DU-145 prostate
[36] = system: COLO 205 colon
[37] = system: NCI-H23 lung
[38] = system: A549 NSCLC
[39] = system: PC-3 prostate
[40] = system: BT-549 breast
[41] = system: MDA-N
[42] = system: HS 578T breast
[43] = system: 786-0 renal
[44] = system: NCI/ADR-RES ovarian
[45] = system: K-562 leukemia
[46] = system: HCT-116 colon
[47] = system: A498 renal
[48] = system: M14 melanoma
[49] = system: OVCAR-3 ovarian
[50] = system: T-47D breast
[51] = system: U251 CNS
[52] = system: HOP-92 NSCLC
[53] = system: UACC-62 melanoma
[54] = system: SK-OV-3 ovarian
[55] = system: RPMI-8226 leukemia
[56] = system: HCC-2998 colon
[57] = system: MALME-3M melanoma
[58] = system: IGROV1 ovarian

CCC(Cc1cnc2nc(N)nc(N)c2n1)c1ccc(C(=O)NC(CCC(=O)O)C(=O)O)cc1 (stereo not drawn)
inactive: GI50 [3] > 100 µM | GI50 [6] > 100 µM | GI50 [25] > 100 µM | GI50 [32] > 100 µM | GI50 [34] > 100 µM | GI50 [48] 34.5 µM | GI50 [49] > 100 µM
active: GI50 [17] 0.0196 µM | GI50 [27] 0.0134 µM
1.28 µM: TGI [21]
> 100 µM: TGI [1] | TGI [2] | TGI [3] | TGI [4] | TGI [5] | TGI [6] | TGI [7] | TGI [8] | TGI [9] | TGI [10] | TGI [11] | TGI [12] | TGI [13] | TGI [14] | TGI [15] | TGI [16] | TGI [17] | TGI [18] | TGI [19] | TGI [20] | TGI [22] | TGI [23] | TGI [24] | TGI [25] | TGI [26] | TGI [27] | TGI [28] | TGI [29] | TGI [30] | TGI [31] | TGI [32] | TGI [33] | TGI [34] | TGI [35] | TGI [36] | TGI [37] | TGI [38] | TGI [39] | TGI [40] | TGI [41] | TGI [42] | TGI [43] | TGI [44] | TGI [45] | TGI [46] | TGI [47] | TGI [48] | TGI [49] | TGI [50]

N#CCN1c2ccccc2CCC1Cl (stereo not drawn)
> 10 µM: TGI [1] | TGI [2] | TGI [3] | TGI [51] | TGI [4] | TGI [5] | TGI [6] | TGI [7] | TGI [52] | TGI [8] | TGI [9] | TGI [10] | TGI [11] | TGI [12] | TGI [13] | TGI [14] | TGI [15] | TGI [17] | TGI [18] | TGI [19] | TGI [20] | TGI [21] | TGI [22] | TGI [23] | TGI [24] | TGI [25] | TGI [26] | TGI [27] | TGI [28] | TGI [29] | TGI [30] | TGI [32] | TGI [53] | TGI [33] | TGI [54] | TGI [35] | TGI [36] | TGI [37] | TGI [38] | TGI [39] | TGI [40] | TGI [55] | TGI [41] | TGI [42] | TGI [43] | TGI [44] | TGI [45] | TGI [46] | TGI [47] | TGI [48] | TGI [49] | TGI [56] | TGI [57] | TGI [50] | TGI [58]

COC(OC)(c1ccccc1)C(Br)Br
> 100 µM: TGI [1] | TGI [2] | TGI [3] | TGI [51] | TGI [4] | TGI [5] | TGI [7] | TGI [9] | TGI [10] | TGI [11] | TGI [13] | TGI [16] | TGI [17] | TGI [18] | TGI [20] | TGI [25] | TGI [26] | TGI [27] | TGI [28] | TGI [29] | TGI [30] | TGI [31] | TGI [32] | TGI [53] | TGI [33] | TGI [34] | TGI [54] | TGI [35] | TGI [37] | TGI [38] | TGI [39] | TGI [40] | TGI [55] | TGI [41] | TGI [42] | TGI [44] | TGI [47] | TGI [49] | TGI [56] | TGI [50] | TGI [58]
42.6 µM: TGI [24]
69.4 µM: TGI [43]
74.2 µM: TGI [12]
34.5 µM: TGI [19]
70.6 µM: TGI [23]
37.2 µM: TGI [46]
71.6 µM: TGI [45]
43.8 µM: TGI [57]
42.4 µM: TGI [15]
33 µM: TGI [8]
39.2 µM: TGI [36]
37.8 µM: TGI [48]
48.5 µM: TGI [22]
